Reference: patent publication US9840478B2 (MERCK SHARP & DOHME CORP., priority 2013, dated 2017)

System: HIV-1 (H9IIIB strain)
Assay: Cell-based HIV infection assay using a reporter (Cell-Based), MT4-GFP cells
Settings: Human immunodeficiency virus 1, MT4-GFP cells infected with HIV-1 H9IIIB; 50% normal human serum; mean of at least two independent experiments; read-out: Cell-based IP
Procedure, shortened: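 IC50 from 4-parameter dose-response of % viral growth inhibition, using the 48 h/24 h infected-cell ratio scaled between DMSO and a protease/integrase/NNRTI triple-drug control. Assay used MT4 cells with HIV-LTR-GFP reporter, pre-infected 24 h with HIV-1 H9IIIB, in 50% normal human serum.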

Compound	IC50 [µM]
COC(=O)N[C@H](C(=O)Nc1cccc(F)c1CC[C@H]1CNCCN1S(=O)(=O)c1ccccc1)[C@@H](c1ccc(Cl)cc1)C1CCOC(C)(C)C1 (stereo partly drawn) [Example 76, (βR)-4-chloro-β-(2,2-dimethyltetrahydro-2H-pyran-4-yl)-N-(3-fluoro-2-{2-[(2S)-1-(phenylsulfonyl)piperazin-2-yl]ethyl}phenyl)-Nα-(methoxycarbonyl)-L-phenylalaninamide]	0.0094
COC(=O)N[C@H](C(=O)Nc1cccc(F)c1CC[C@H]1CNCCN1S(=O)(=O)c1ccccc1)[C@@H](c1ccc(Cl)cc1)C1CC(C)(C)OC(C)(C)C1 [Example 77, (βR)-4-chloro-N-(3-fluoro-2-{2-[(2S)-1-(phenylsulfonyl)piperazin-2-yl]ethyl}phenyl)-Nα-(methoxycarbonyl)-β-(2,2,6,6-tetramethyltetrahydro-2H-pyran-4-yl)-L-phenylalaninamide]	0.018
CC1(C)CC([C@H](c2ccc(Cl)cc2)[C@H](N)C(=O)Nc2cccc(F)c2CC[C@H]2CNCCN2S(C)(=O)=O)CCO1 (stereo partly drawn) [Example 78, (βR)-4-chloro-β-(2,2-dimethyltetrahydro-2H-pyran-4-yl)-N-(3-fluoro-2-{2-[(2S)-1-(methylsulfonyl)piperazin-2-yl]ethyl}phenyl)-L-phenylalaninamide]	0.11
COC(=O)N[C@H](C(=O)Nc1cccc(F)c1CC[C@H]1CNCCN1S(C)(=O)=O)[C@@H](c1ccc(Cl)cc1)C1CCOC(C)(C)C1 (stereo partly drawn) [Example 79, (βR)-4-chloro-β-(2,2-dimethyltetrahydro-2H-pyran-4-yl)-N-(3-fluoro-2-{2-[(2S)-1-(methylsulfonyl)piperazin-2-yl]ethyl}phenyl)-Nα-(methoxycarbonyl)-L-phenylalaninamide]	0.03
CC(=O)N[C@H](C(=O)Nc1cncc(F)c1CC[C@H]1CNCCN1S(=O)(=O)C1CC1)[C@@H](c1ccc(F)cc1)c1cc(F)cc(F)c1 [Example 80, (βS)-Nα-acetyl-N-(4-{2-[(2S)-1-(cyclopropylsulfonyl)piperazin-2-yl]ethyl}-5-fluoropyridin-3-yl)-3,5-difluoro-β-(4-fluorophenyl)-L-phenylalaninamide]	0.066
O=C(N[C@H](C(=O)Nc1cncc(F)c1CC[C@H]1CNCCN1S(=O)(=O)C1CC1)[C@@H](c1ccc(F)cc1)c1cc(F)cc(F)c1)C1CC1 [Example 81]	0.025
O=C(CC1CC1)N[C@H](C(=O)Nc1cncc(F)c1CC[C@H]1CNCCN1S(=O)(=O)C1CC1)[C@@H](c1ccc(F)cc1)c1cc(F)cc(F)c1 [Example 82, (βS)-Nα-(cyclopropylacetyl)-N-(4-{2-[(2S)-1-(cyclopropylsulfonyl)piperazin-2-yl]ethyl}-5-fluoropyridin-3-yl)-3,5-difluoro-β-(4-fluorophenyl)-L-phenylalaninamide]	0.034
N[C@H](C(=O)Nc1cncc(F)c1CC[C@H]1CNCCN1S(=O)(=O)N1CCCC1)[C@@H](c1ccc(F)cc1)c1cc(F)cc(F)c1 [Example 83, (βS)-3,5-difluoro-β-(4-fluorophenyl)-N-(5-fluoro-4-{2-[(2S)-1-(pyrrolidin-1-ylsulfonyl)piperazin-2-yl]ethyl}pyridin-3-yl)-L-phenylalaninamide]	0.0089
COC(=O)N[C@H](C(=O)Nc1cncc(F)c1CC[C@H]1CNCCN1S(=O)(=O)N1CCCC1)[C@@H](c1ccc(F)cc1)c1cc(F)cc(F)c1 [Example 84, (βS)-3,5-difluoro-β-(4-fluorophenyl)-N-(5-fluoro-4-{2-[(2S)-1-(pyrroldin-1-ylsulfonyl)piperazin-2-yl]ethyl}pyridin-3-yl)-Nα-(methoxycarbonyl)-L-phenylalaninamide]	0.0084
CC(=O)N[C@H](C(=O)Nc1cncc(F)c1CC[C@H]1CNCCN1S(=O)(=O)N1CCCC1)[C@@H](c1ccc(F)cc1)c1cc(F)cc(F)c1 [Example 85, (βS)-Nα-acetyl-3,5-difluoro-β-(4-fluorophenyl)-N-(5-fluoro-4-{2-[(2S)-1-(pyrrolidin-1-ylsulfonyl)piperazin-2-yl]ethyl}pyridin-3-yl)-L-phenylalaninamide]	0.021
O=C(N[C@H](C(=O)Nc1cncc(F)c1CC[C@H]1CNCCN1S(=O)(=O)N1CCCC1)[C@@H](c1ccc(F)cc1)c1cc(F)cc(F)c1)C1CC1 [Example 86]	0.013
O=C(CC1CC1)N[C@H](C(=O)Nc1cncc(F)c1CC[C@H]1CNCCN1S(=O)(=O)N1CCCC1)[C@@H](c1ccc(F)cc1)c1cc(F)cc(F)c1 [Example 87]	0.016
C[C@@H]1CN(S(=O)(=O)c2ccccc2)[C@@H](CCc2c(F)cccc2NC(=O)CC(c2ccc(F)cc2)c2ccc(F)cc2)CN1 [Example 88, N-(3-fluoro-2-{2-[(2S,5R)-5-methyl-1-(phenylsulfonyl)piperazin-2-yl]ethyl}phenyl)-3,3-bis(4-fluorophenyl) propanamide]	0.52
C[C@H]1CN(S(=O)(=O)c2ccccc2)[C@@H](CCc2c(F)cccc2NC(=O)CC(c2ccc(F)cc2)c2ccc(F)cc2)CN1 [Example 89, N-(3-fluoro-2-{2-[(2S,5S)-5-methyl-1-(phenylsulfonyl)piperazin-2-yl]ethyl}phenyl)-3,3-bis(4-fluorophenyl) propanamide]	0.7
C[C@@H]1CNC[C@H](CCc2c(F)cccc2NC(=O)CC(c2ccc(F)cc2)c2ccc(F)cc2)N1S(=O)(=O)c1ccccc1 [Example 90, N-(3-fluoro-2-{2-[(2S,6R)-6-methyl-1-(phenylsulfonyl)piperazin-2-yl]ethyl}phenyl)-3,3-bis(4-fluorophenyl) propanamide]	0.066
C[C@@H]1CNC[C@@H](CCc2c(F)cccc2NC(=O)CC(c2ccc(F)cc2)c2ccc(F)cc2)N1S(=O)(=O)c1ccccc1 [Example 91, N-(3-fluoro-2-{2-[(2R,6R)-6-methyl-1-(phenylsulfonyl)piperazin-2-yl]ethyl}phenyl)-3,3-bis(4-fluorophenyl) propanamide]	1.7
C[C@H]1CNC[C@H](CCc2c(F)cccc2NC(=O)CC(c2ccc(F)cc2)c2ccc(F)cc2)N1S(=O)(=O)c1ccccc1 [Example 92, N-(3-fluoro-2-{2-[(2S,6S)-6-methyl-1-(phenylsulfonyl)piperazin-2-yl]ethyl}phenyl)-3,3-bis(4-fluorophenyl) propanamide]	0.017
C[C@H]1CNC[C@@H](CCc2c(F)cccc2NC(=O)CC(c2ccc(F)cc2)c2ccc(F)cc2)N1S(=O)(=O)c1ccccc1 [Example 93, N-(3-fluoro-2-{2-[(2R,6S)-6-methyl-1-(phenylsulfonyl)piperazin-2-yl]ethyl}phenyl)-3,3-bis(4-fluorophenyl) propanamide]	0.12
C[C@@H]1CNC[C@H](CCc2c(F)cccc2NC(=O)[C@@H](N)[C@@H](c2ccc(F)cc2)c2cc(F)cc(F)c2)N1S(=O)(=O)c1ccccc1 [Example 94, (βS)-β-(3,5-difluorophenyl)-4-fluoro-N-(3-fluoro-2-{2-[(2S,6R)-6-methyl-1-(phenylsulfonyl)piperazin-2-yl]ethyl}phenyl)-L-phenylalaninamide]	0.024
COC(=O)N[C@H](C(=O)Nc1cccc(F)c1CC[C@H]1CNC[C@H](C)N1S(=O)(=O)c1ccccc1)[C@@H](c1ccc(F)cc1)c1cc(F)cc(F)c1 [Example 95, (βS)-β-(3,5-difluorophenyl)-4-fluoro-N-(3-fluoro-2-{2-[(2S,6S)-6-methyl-1-(phenylsulfonyl)piperazin-2-yl]ethyl}phenyl)-Nα-(methoxycarbonyl)-L-phenylalaninamide]	0.02
C[C@H]1CNC[C@H](CCc2c(F)cccc2NC(=O)[C@@H](N)[C@@H](c2ccc(F)cc2)c2cc(F)cc(F)c2)N1S(=O)(=O)c1ccccc1 [Example 97, (βS)-β-(3,5-difluorophenyl)-4-fluoro-N-(3-fluoro-2-{2-[(2S,6S)-6-methyl-1-(phenylsulfonyl)piperazin-2-yl]ethyl}phenyl)-L-phenylalaninamide]	0.025
C[C@@H]1CN(S(=O)(=O)c2ccccc2)[C@@H](CCc2c(F)cccc2NC(=O)[C@@H](N)[C@@H](c2ccc(Cl)cc2)c2cccc(OC(F)(F)F)c2)CN1 [Example 98, (βS)-4-chloro-N-(3-fluoro-2-{2-[(2S,5R)-5-methyl-1-(phenylsulfonyl)piperazin-2-yl]ethyl}phenyl)-β-[3-(trifluoromethoxy)phenyl]-L-phenylalaninamide]	0.35
COC(=O)N[C@H](C(=O)Nc1cccc(F)c1CC[C@H]1CNC[C@H](C)N1S(C)(=O)=O)[C@@H](c1ccc(F)cc1)c1cc(F)cc(F)c1 [Example 99, (βS)-β-(3,5-difluorophenyl)-4-fluoro-N-(3-fluoro-2-{2-[(2S,6S)-6-methyl-1-(methylsulfonyl)piperazin-2-yl]ethyl}phenyl)-Nα-(methoxycarbonyl)-L-phenylalaninamide]	0.016
COC(=O)N[C@H](C(=O)Nc1cccc(F)c1CC[C@H]1CNC[C@H](C)N1S(=O)(=O)c1ccccc1)C(c1cccc(F)c1)c1cccc(F)c1 [Example 100, 3-fluoro-N-(3-fluoro-2-{2-[(2S,6S)-6-methyl-1-(phenylsulfonyl)piperazin-2-yl]ethyl}phenyl)-β-(3-fluorophenyl)-Nα-(methoxycarbonyl)-L-phenylalaninamide]	0.03
C[C@H]1CNC[C@H](CCc2c(F)cccc2NC(=O)[C@@H](N)[C@@H](c2ccc(Cl)cc2)c2cccc(F)c2)N1S(=O)(=O)c1ccccc1 [Example 101, (βS)-4-chloro-N-(3-fluoro-2-{2-[(2S,6S)-6-methyl-1-(phenylsulfonyl)piperazin-2-yl]ethyl}phenyl)-β-(3-fluorophenyl)-L-phenylalaninamide]	0.024
C[C@H]1CNC[C@H](CCc2c(F)cccc2NC(=O)[C@@H](N)[C@@H](c2ccc(F)cc2)C2CCOCC2)N1S(=O)(=O)c1ccccc1 [Example 102, (βR)-4-fluoro-N-(3-fluoro-2-{2-[(2S,6S)-6-methyl-1-(phenylsulfonyl)piperazin-2-yl]ethyl}phenyl)-β-(tetrahydro-2H-pyran-4-yl)-L-phenylalaninamide]	0.019
